From PMC5889877, “Ex Vivo Cardiotoxicity of Antineoplastic Casiopeinas Is Mediated through Energetic Dysfunction and Triggered Mitochondrial-Dependent Apoptosis” (Oxidative Medicine and Cellular Longevity, 2018)
Marks after values point to notes of the source that are not given here.

Tests used:
[1] = tested on: isolated rat hearts; assay: Langendorff-perfused isolated rat heart: mechanical performance (RPP, HR, ±dP/dt, cardiac efficiency)
Method: (§1) Male Wistar rats (250–300 g) were injected with heparin (10^3 U·kg^−1, i.p.) 20 minutes prior to anesthesia with pentobarbital (100 mg·kg^−1, i.p.). When bilateral corneal reflex was absent, the heart was excised through an abdominal approach. Then, the ascending aorta was visualized and cut and the heart was placed in a cardioplegic solution. To avoid ischemia, the time between cutting the diaphragm to placing the heart in the solution was less than 60 seconds. The hearts were mounted in accordance with the Langendorff model and perfused at a constant flow (12 ml·min^−1) with a Krebs-Henseleit buffer as previously described. A latex balloon connected to a pressure transducer filled with saline solution was inserted into the left ventricle after establishing autonomous contraction. The pulmonary artery was cannulated and connected to a closed chamber using a Clark-type oxygen electrode (Yellow Springs Instruments, Yellow Springs, Ohio) to measure myocardial oxygen consumption (MVO2) in the coronary effluent. The rate of MVO2 was calculated as the difference between the concentration in the K-H buffer before (100%) and after perfusion. Data Trax software (WPI, Sarasota, Florida) was used for continuous recording of the heart rate (HR), left ventricular pressure (LVP), MVO2, and maximum positive and negative derivative of left ventricular pressure (±dP/dt). The baseline was established during 10–15 minutes of K-H perfusion. Each concentration of Cas or Doxo remained in the heart for 30 min. Hearts in the control group were perfused with K-H buffer during the whole experimental time. Rate pressure product (RPP = HR × LVP) and cardiac efficiency ([…]) were calculated as previously reported.

[2] = tested on: isolated rat hearts; assay: Myocardial oxygen consumption and energetic metabolites (ATP, PCr) in perfused hearts; settings: Cas at IC50, Doxo 5 μM
Method: as §1
(§2) To measure the energetic metabolites ATP, phosphocreatine (PCr), and aconitase activity at the end of the perfusion protocols, samples were prepared as follows: the hearts were removed from the perfusion system by cutting the aorta and immediately flash-frozen with liquid N2, weighed, and stored at −80°C. Afterward, the hearts were homogenized in ice-cold buffer containing 250 mM sucrose, 10 mM HEPES, and 1 mM EDTA (pH 7.4). For enzymatic determination, aliquots of the homogenate were immediately frozen in liquid nitrogen and stored at −80°C. Quantification of ATP and PCr was carried out in a HPLC system with a dual-pump gradient (Waters Chromatography, Toronto, Canada) as previously described.

[3] = tested on: mitochondria isolated from Cas-treated hearts; assay: Respiratory activity of mitochondria isolated from treated hearts (Clark-type oxygen electrode); parameters: species or system rat
Method: (§3) To measure mitochondrial oxygen consumption, mitochondrial membrane potential, and Ca^2+ uptake, cytochrome c samples were prepared as follows: after perfusion, heart tissue from the left ventricle was minced and homogenized in cold mitochondrial isolation medium (in mM: 125 KCl, 1 EDTA, and 10 HEPES-HCl; pH 7.3). The mitochondrial fraction was obtained by differential centrifugation using the protease Nagarse, as previously described. Mitochondrial oxygen consumption was measured using a Clark-type oxygen electrode. The experiments were carried out in respiration assay medium containing 125 KCl, 10 HEPES-HCl, and 3 KH2PO4 (in mM) with pH 7.3. State 4 respiration was measured in the presence of 10 mM glutamate-malate, and state 3 respiration was evaluated after addition of 100 μM ADP. Maximal respiration was determined with 0.08 μM of carbonyl cyanide m-chlorophenyl hydrazine (CCCP). The mitochondrial membrane potential was measured by fluorometry using 5 μM safranine. Mitochondrial Ca^2+ uptake was determined with the metalochromic indicator, Arsenazo III, or calcium green 5N (5N-CG), using a medium containing 50 μM Arsenazo or 10 μM 5N-CG, 10 mM succinate plus rotenone (0.1 μg·ml^−1), 200 μM ADP, and 0.25 μg oligomycin A. Pulses of 10 nmol Ca^+2 were added every 3 minutes to reach a Ca^+2 release due to MPT opening. Mitochondrial cytochrome c quantification from Cas-treated hearts was performed using Western blot analysis as described previously. The blots were developed with Luminata crescendo substrate (Merck Millipore, Darmstadt, Germany) and detected with VisionWorks LS-UVP Chimio System (BioSpectrum 415 Imaging System, Cambridge, UK).

[4] = tested on: mitochondrial permeability transition pore; assay: Mitochondrial Ca2+ retention capacity (MPT opening); parameters: species or system rat; settings: mitochondria from treated hearts, CsA 0.5 μM added in vitro
Method: as §3

[5] = tested on: caspases 3 and 7; assay: Caspase-Glo 3/7 activity in cell lysates; assay type: cell-based, rat; settings: cardiomyocytes treated at IC50, compared to Doxo or the control
From the text: Ventricular cardiomyocytes were obtained from male Wistar rats (250–300 g) by digestion with collagenase type II as previously described. Cells were washed in Tyrode solution (mM): 130 NaCl, 5.4 KCl, 0.4 NaH2PO4, 0.5 MgCl2, 25 HEPES, and 5 glucose with pH 7.4. After isolation, cells were cultivated at a density of 3.2 × 10^3 viable cells/well in 96-well plates pretreated with laminin in M-199 medium supplemented in mM with 5 taurine, 5 creatine, 2 L-carnitine, 2.5 sodium pyruvate, and penicillin-streptomycin at 100 U·ml^−1 and 100 μg·ml^−1, respectively, at 37°C, with 5% CO2 and 95% air. After incubation for three hours, varying concentrations of Cas were tested in triplicate, exposing the myocytes during 24 hours to each treatment. At the end of the incubation period, the cytotoxicity of Cas was measured using the Alamar Blue viability test (Life Technologies, Carlsbad, CA, USA). Release of cytoplasmic lactate dehydrogenase (LDH) was determined using CytoTox-ONE homogeneous membrane integrity kit (Promega Madison, WI, USA). The activity of caspases 3/7 and caspase 9 was measured in cell lysates using caspase-Glo 3/7 and caspase-Glo 9 test luminescent assay (Promega, Madison, WI, USA), respectively. The cardiomyoblast cell line H9c2 (ATCC CRL-1446) was maintained using standard procedures in DMEM supplemented with 10% fetal bovine serum prior to the oxidative stress experiments.

[6] = tested on: cytochrome c; assay: Mitochondrial cytochrome c content by Western blot; parameters: species or system rat; settings: heart mitochondria after 30 min perfusion at IC50
Method: as §3, with “Mitochondrial cytochrome c quantification from Cas-treated hearts was performed using Western blot analysis as described previously. The blots were developed with Luminata crescendo substrate (Merck Millipore, Darmstadt, Germany) and detected with VisionWorks LS-UVP Chimio System (BioSpectrum 415 Imaging System, Cambridge, UK).” left out

[7] = tested on: aconitase; assay: Mitochondrial aconitase activity in heart homogenates; settings: ex vivo heart, Cas at IC50, Doxo 5 μM
Method: as §2

[8] = tested on: subcutaneous tumors; settings: nude mice ref 29; cited from earlier work
[9] = tested on: α-ketoglutarate dehydrogenase; parameters: method as in PMID 26739598; settings: cited from earlier work

Compound: CC(=O)C=C(C)[O-].Cc1ccnc(-c2cc(C)ccn2)c1.O.O.O=[N+]([O-])[O-].[Cu+2] [Cas III-ia, Aqua(4,4-dimethyl-2,2′bipyridine)(acetylacetonate)copper(II)nitrate]
- +dP/dt × 1000 (contraction rate) ([1]; hearts treated at the IC50): 2.4 ± 0.20^∗ mmHg·s^−1
- −dP/dt × 1000 (relaxation rate) ([1]; hearts treated at the IC50): −1.0 ± 0.16^∗ mmHg·s^−1
- t 0.5, time for half-inhibition of RPP ([1]; isolated rat heart, 5 μM): 49 ± 0.8^a,b,c min
- heart rate (HR) reduction ([1]; perfused at 5 μM): not affected
- IC50 ([1]; read-out: IC50, half-maximal inhibitory concentration for RPP (heart contractile function), isolated rat heart, at 30 min perfusion): 10 ± 0.7 µM
- PCr levels [2]: decreased
- change in MVO2 [2]: no changes
- decrease in ATP content [2]: 37%
- Max. respiration ([3]; 0.08 μM CCCP): 12.3 ± 2.6^∗ nmol O min^−1·mg^−1
- State 4 respiration ([3]; 10 mM glutamate-malate): 15.6 ± 2.6 nmol O min^−1·mg^−1
- Respiratory control ([3]; malate/glutamate): 1.3 ± 0.1^∗
- State 3 respiration ([3]; malate/glutamate, after 100 μM ADP): 18.5 ± 0.6^∗ nmol O min^−1·mg^−1
- decrease in state 3 respiration rate ([3]; versus control): 78%
- reduction in maximal respiration ([3]; versus control): 87%
- protective effect of CsA on Ca2+ retention capacity [4]: 28%
- increase in activity of caspases 3 and 7 [5]: ~ 4 fold
- mitochondrial cytochrome c content [6]: reduction of cytochrome c
- aconitase activity [7]: decreased
- reduction of the volume of subcutaneous tumors [8]: 81%
- α-ketoglutarate dehydrogenase activity compared with III-Ea [9]: twofold decrease
